Assay results from ChEMBL document CHEMBL1121410, “Structure--taste relationship of perillartine and nitro- and cyanoaniline derivatives” (J Med Chem, 1980).

Key:
[1] = Evaluated for taste quality, NS means not sweet
[2] = species on record: Homo sapiens; assay: Activity expressed by taste potency (taste intensity relative to sucrose on a mole/mole basis); format: functional
[3] = species on record: Homo sapiens; assay: Taste quality; format: functional
[4] = The activity was expressed by the logarithm of the taste potency as measure of taste intensity relative to that of sucrose on a mole/mole basis;T = tasteless
[5] = The activity was expressed by the logarithm of the taste potency as measure of taste intensity relative to that of sucrose on a mole/mole basis; I means insoluble
[6] = The activity was expressed by the logarithm of the taste potency as measure of taste intensity relative to that of sucrose on a mole/mole basis; NI means not isolated
[7] = Evaluated for taste quality,

SMILES	Log A [2]	Log sweet/bitter [3]	other results
COC(C)C1=CCC=C(/C=N/O)C1 (centres undefined)	1.96	–	Log sweet/bitter [1]: Not sweet
Nc1cc([N+](=O)[O-])ccc1F	1.26	–	–
C/C=C(C)/C(C)=N/O	2.15	–	–
COC(C)C1=CC=C(/C=N/O)CC1 (centres undefined)	2.13	0.97	–
COCC(OC)C1CC=C(/C=N/O)CC1 (centres undefined)	0.9	–	Log sweet/bitter [1]: Not sweet
COCCC1CC=C(/C=N/O)CC1 (centres undefined)	–	–	Log A [4]: Tasteless
CCCOc1ccc([N+](=O)[O-])cc1N	3.46	–	–
COC(C)(CO)C1CC=C(/C=N/O)CC1 (centres undefined)	1.04	-1.4	–
Cc1ccc([N+](=O)[O-])cc1N	2.17	–	–
C=COc1ccc([N+](=O)[O-])cc1N	3.06	–	–
COc1ccc([N+](=O)[O-])cc1N	2.21	–	–
COCC1=CCC=C(/C=N/O)C1	2.15	–	Log sweet/bitter [1]: Not sweet
COCC/C=C(C)/C=N/O	0.6	–	–
C=C(C)C1CC=C(/C=N/O)CC1 (centres undefined)	2.57	0.38	–
COCC1CC=C(/C=N/O)CC1 (centres undefined)	1.72	0.38	–
C/C(=N\O)C1=CCCCC1	2.61	–	Log sweet/bitter [1]: Not sweet
CC1CC=C(/C=N/O)C(C)O1 (centres undefined)	1	–	Log sweet/bitter [1]: Not sweet
O/N=C/C1=CCCC1	1.74	–	–
COc1ccc(C#N)cc1N	1.89	–	–
Nc1cc([N+](=O)[O-])ccc1Br	2.71	–	–
COCC(C)(O)C1CC=C(/C=N/O)CC1 (centres undefined)	0.6	-1.05	–
CC(C)(OCC(=O)O)C1CC=C(/C=N/O)CC1 (centres undefined) [listing 1 of 2 here]	1.98	0.15	–
C=CC1C=C(/C=N/O)CCC1 (centres undefined)	2.24	-0.39	–
N#Cc1ccc(Br)c(N)c1	2.46	–	–

SMILES	Log A [2]	Log sweet/bitter [3]	other results
C/C=C(C)/C=N/O	1.6	–	–
O/N=C/C1=CCCCC1	1.74	–	–
CCCCOc1ccc([N+](=O)[O-])cc1N	2.79	–	–
O/N=C/C1=CCCOC1	0.3	–	–
O/N=C/C1=CCOCC1	0.18	–	–
CCCc1ccc([N+](=O)[O-])cc1N	3.02	–	–
COC(C)C1CCC=C(/C=N/O)C1 (centres undefined)	1.45	-1.4	–
COCCOCC1CC=C(/C=N/O)CC1 (centres undefined)	–	–	Log A [5]: Insoluble
CCCOc1ccc(C#N)cc1N	3.11	–	–
N#Cc1ccc(Cl)c(N)c1	2.13	–	–
CCOc1ccc([N+](=O)[O-])cc1N	2.87	–	–
CC(C)C1=CCC(/C=N/O)=CC1	2.51	-0.07	–
COC(C)C1=CCC(/C=N/O)=CC1 (centres undefined)	2.48	1.96	–
CC1CC=C(/C=N/O)CC1 (centres undefined)	2.4	-0.1	–
CC(C)(OCC(=O)[O-])C1CC=C(/C=N/O)CC1.[Na+] (centres undefined)	1	–	–
N#Cc1cccc(N)c1	0.94	–	–
CCOC1CC=C(/C=N/O)CC1 (centres undefined)	1.2	0.21	–
Nc1cc([N+](=O)[O-])ccc1Cl	2.31	–	–
COC(C)C1CC=C(/C=N/O)CC1 (centres undefined)	1.9	0.4	–
COC1CC=C(/C=N/O)CC1 (centres undefined)	0.9	0.21	–
CC1=CCC(/C=N/O)=CC1	2.7	1.42	–
CC(O)(CO)C1CC=C(/C=N/O)CC1 (centres undefined)	1.48	-1.15	–
COCC1CCC=C1/C=N/O (centres undefined)	1.52	-0.12	–
CO/N=C(/C)C1CC=C(/C=N/O)CC1 (centres undefined)	1.9	–	–

SMILES	Log A [2]	Log sweet/bitter [3]	other results
O/N=C/C1=CCC=CC1	2.3	–	–
O/N=C/C1=CC=CCC1	1.95	–	–
CC(=O)C1CC=C(/C=N/O)CC1 (centres undefined)	1.08	0.22	–
COCC1CC=C(/C=N/O)C1 (centres undefined)	1.38	0.64	–
COCC1=CC=C(/C=N/O)CC1	–	–	Log A [6]: Not isolated
O/N=C/C1=CC2C=CC1CC2 (centres undefined)	2.51	–	Log sweet/bitter [1]: Not sweet
CC1=CC=C(/C=N/O)CC1	2.18	0.23	–
CC(C)(OCC(=O)O)C1CC=C(/C=N/O)CC1 (centres undefined) [listing 2 of 2 here]	–	–	Log sweet/bitter [1]: Not sweet
COCC(C)(OC)C1CC=C(/C=N/O)CC1 (centres undefined)	1.7	–	–
C=CC1CC=C(/C=N/O)CC1 (centres undefined)	3.06	0.7	–
CC1(C2CC=C(/C=N/O)CC2)CO1 (centres undefined)	1.7	–	–
COCCCC/C=C(C)/C=N/O	1.23	–	–
CC(C)Oc1ccc([N+](=O)[O-])cc1N	2.54	–	–
O/N=C/C1=COCCC1	0.48	–	–
C=C(C)/C=N/O	0.9	–	–
CCOc1ccc(C#N)cc1N	2.63	–	–
CC(C)(O)C1CC=C(/C=N/O)CC1 (centres undefined)	0.9	–	Log sweet/bitter [7]: -0.66
Nc1cc([N+](=O)[O-])ccc1I	2.98	–	–
Nc1cc([N+](=O)[O-])ccc1O [2-AMINO-4-NITROPHENOL]	1.96	–	–
O/N=C/C1=CCSCC1	1.3	–	–
Nc1cccc([N+](=O)[O-])c1 [3-NITROANILINE]	1.21	–	–
COCC1=CCC(/C=N/O)=CC1	2.35	1.65	–
